In brackets after ≈: the same amount, converted by molar mass.
Tests used:
[1] = tested on: E. coli LZ3111; assay: Antibacterial activity, MIC, quinolone resistant strain (Table 2); format: cell-based; details: Escherichia coli, LZ3111, read-out: MIC LZ3111
How it was run: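 MIC values (μg/mL) came from a microbroth dilution assay, scored as the lowest drug concentration at which no growth was visible by eye.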

[2] = tested on: E. coli ELZ4251; assay: Antibacterial activity, MIC, multi-drug resistant clinical isolate (Table 3); format: cell-based; details: Escherichia coli
Excerpt: (§1) The antibacterial activity from a microbroth dilution method may be presented as the minimum inhibitory concentration (MIC in μg/mL). The MIC value is the lowest concentration of drug which prevents macroscopically visible growth under test conditions.
(§2) Antibacterial activity of test compounds against E. coli ELZ4000 and E. coli ELZ4251 multi-drug resistant clinical isolates is shown in Table 3.

[3] = tested on: Staphylococcus aureus (S. aureus) 29213; assay: Antibacterial activity, microbroth dilution MIC (Table 1); format: cell-based; details: microbroth dilution, Gram-positive S. aureus 29213, read-out: MIC, 29213
How it was run: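 Microbroth dilution was used. MIC, in μg/mL, is the lowest drug concentration preventing macroscopically visible growth under the test conditions.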

[4] = tested on: Escherichia coli (E. coli) BAS849; assay: as above; format: cell-based; details: microbroth dilution, super sensitive Gram-negative E. coli BAS849, read-out: MIC, BAS849
How it was run: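 Growth inhibition by microbroth dilution. MIC = lowest μg/mL with no visible growth. Strain 25922 is the control Gram-negative; BAS849 is hypersensitive.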

[5] = tested on: Klebsiella pneumoniae (K. pneumoniae) 35657; assay: Antibacterial activity, MIC (Table 4); format: cell-based; details: K. pneumoniae 35657, read-out: MIC, 35657
How it was run: (§3)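 MIC (μg/mL) by microbroth dilution, taken as the lowest drug concentration preventing macroscopically visible growth. MXX strains are multi-drug resistant clinical isolates.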

[6] = tested on: Acinetobacter baumannii (A. baumannii) BAA747; assay: Antibacterial activity, MIC (Table 4); format: cell-based; details: A. baumannii BAA747, read-out: MIC, BAA747
How it was run: as §3

[7] = tested on: Pseudomonas aeruginosa (P. aeruginosa) 27853; assay: Antibacterial activity, MIC (Table 5); format: cell-based; details: P. aeruginosa 27853, read-out: MIC, 27853
How it was run: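 Values are MICs in μg/mL, read as the lowest concentration at which no growth is visible by eye. They were determined by a microbroth dilution method.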

[8] = tested on: A. baumannii MXX2240; assay: Antibacterial activity, MIC, resistant strain (Table 4); format: cell-based; details: Acinetobacter baumannii, MXX2240; resistant A. baumannii MMX2240, multi-drug resistant clinical isolate; read-out: MIC, MMX2240
How it was run: as §3

[9] = tested on: K. pneumoniae MXX1232; assay: as above; format: cell-based; details: Klebsiella pneumoniae, MXX1232; resistant K. pneumoniae MMX1232, multi-drug resistant clinical isolate; read-out: MIC, MMX1232
How it was run: as §3

[10] = tested on: E. coli 25922; assay: Antibacterial activity, microbroth dilution MIC (Table 1); format: cell-based, Escherichia coli; details: Escherichia coli; microbroth dilution; control Gram-negative E. coli 25922 strain; read-out: MIC, 25922
How it was run: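 Broth microdilution; endpoint = no macroscopic growth; value = lowest inhibiting concn, μg/mL.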

[11] = tested on: E. coli ELZ4000; assay: Antibacterial activity, MIC, multi-drug resistant clinical isolate (Table 3); format: cell-based; details: Escherichia coli, ELZ4000, read-out: MIC ELZ4000
Excerpt: as §1, §2

**Q.** How did the MIC [1] turn out when `CCc1cc(C(=O)O)c(=O)[nH]c1-c1ccc2sccc2c1` [Cpd 366, 6-(benzo[b]thiophen-5-yl)-5-ethyl-2-oxo-1,2-dihydropyridine-3-carboxylic acid] was run?
**A.** 12.5 to 150 µg/mL (≈ 41.8 to 501 µM)

**Q.** And the MIC [2]?
**A.** 12.5 to 150 µg/mL (≈ 41.8 to 501 µM)

**Q.** And the MIC [3]?
**A.** 12.5 to 150 µg/mL (≈ 41.8 to 501 µM)

**Q.** And the MIC [4]?
**A.** < 1 µg/mL

**Q.** And the MIC [5]?
**A.** 12.5 to 150 µg/mL (≈ 41.8 to 501 µM)

**Q.** And the MIC [6]?
**A.** 12.5 to 150 µg/mL (≈ 41.8 to 501 µM)

**Q.** What about the MIC [7] of the same compound?
**A.** 12.5 to 150 µg/mL (≈ 41.8 to 501 µM)

**Q.** And the MIC [8]?
**A.** 12.5 to 150 µg/mL (≈ 41.8 to 501 µM)

**Q.** And the MIC [9]?
**A.** 12.5 to 150 µg/mL (≈ 41.8 to 501 µM)

**Q.** What about the MIC [10] of the same compound?
**A.** 3.5 to 12.5 µg/mL (≈ 11.7 to 41.8 µM)

**Q.** For `CCc1c(-c2ccc3occc3c2)[nH]c(=O)c(C(=O)O)c1O` [Cpd 365, 6-(benzofuran-5-yl)-5-ethyl-4-hydroxy-2-oxo-1,2-dihydropyridine-3-carboxylic acid], which MIC [1] is on record?
**A.** 3.5 to 12.5 µg/mL (≈ 11.7 to 41.8 µM)

**Q.** What about the MIC [2] of the same compound?
**A.** 3.5 to 12.5 µg/mL (≈ 11.7 to 41.8 µM)

**Q.** And the MIC [3]?
**A.** 3.5 to 12.5 µg/mL (≈ 11.7 to 41.8 µM)

**Q.** What about the MIC [4] of the same compound?
**A.** < 1 µg/mL

**Q.** And the MIC [5]?
**A.** 12.5 to 150 µg/mL (≈ 41.8 to 501 µM)

**Q.** What about the MIC [6] of the same compound?
**A.** 12.5 to 150 µg/mL (≈ 41.8 to 501 µM)

**Q.** What about the MIC [7] of the same compound?
**A.** 12.5 to 150 µg/mL (≈ 41.8 to 501 µM)

**Q.** What about the MIC [8] of the same compound?
**A.** 1 to 3.5 µg/mL (≈ 3.34 to 11.7 µM)

**Q.** And the MIC [9]?
**A.** 12.5 to 150 µg/mL (≈ 41.8 to 501 µM)

**Q.** And the MIC [10]?
**A.** 12.5 to 150 µg/mL (≈ 41.8 to 501 µM)

**Q.** What does the source list for `CCc1c(-c2ccc3c(c2)cc(CN(C)C2CCNCC2)n3C)[nH]c(=O)c(C(=O)O)c1O` [Cpd 261, 5-ethyl-4-hydroxy-6-(1-methyl-2-((methyl(piperidin-4-yl)amino)methyl)-1H-indol-5-yl)-2-oxo-1,2-dihydropyridine-3-carboxylic acid]?
**A.** MIC [1]: 3.5 to 12.5 µg/mL (≈ 7.98 to 28.5 µM); MIC [2]: 12.5 to 150 µg/mL (≈ 28.5 to 342 µM); MIC [11]: 12.5 to 150 µg/mL (≈ 28.5 to 342 µM); MIC [3]: 12.5 to 150 µg/mL (≈ 28.5 to 342 µM); MIC [4]: 1 to 3.5 µg/mL (≈ 2.28 to 7.98 µM); MIC [7]: 12.5 to 150 µg/mL (≈ 28.5 to 342 µM); MIC [10]: 3.5 to 12.5 µg/mL (≈ 7.98 to 28.5 µM)

**Q.** How did the MIC [1] turn out when `CCCCCCCNCc1cc2cc(-c3[nH]c(=O)c(C(=O)O)c(O)c3CC)ccc2n1C` [Cpd 336, 5-ethyl-6-(2-((heptylamino)methyl)-1-methyl-1H-indol-5-yl)-4-hydroxy-2-oxo-1,2-dihydropyridine-3-carboxylic acid] was run?
**A.** < 1 µg/mL

**Q.** And the MIC [2]?
**A.** 12.5 to 150 µg/mL (≈ 28.4 to 341 µM)

**Q.** What about the MIC [3] of the same compound?
**A.** < 1 µg/mL

**Q.** What about the MIC [4] of the same compound?
**A.** < 1 µg/mL

**Q.** And the MIC [5]?
**A.** 12.5 to 150 µg/mL (≈ 28.4 to 341 µM)

**Q.** What about the MIC [6] of the same compound?
**A.** 12.5 to 150 µg/mL (≈ 28.4 to 341 µM)

**Q.** What about the MIC [7] of the same compound?
**A.** 12.5 to 150 µg/mL (≈ 28.4 to 341 µM)

**Q.** What about the MIC [8] of the same compound?
**A.** 12.5 to 150 µg/mL (≈ 28.4 to 341 µM)

**Q.** What about the MIC [9] of the same compound?
**A.** 12.5 to 150 µg/mL (≈ 28.4 to 341 µM)

**Q.** And the MIC [10]?
**A.** 3.5 to 12.5 µg/mL (≈ 7.96 to 28.4 µM)

**Q.** For `CCCCNCc1cc2cc(-c3[nH]c(=O)c(C(=O)O)c(O)c3CC)ccc2n1C` [Cpd 333, 6-(2-((butylamino)methyl)-1-methyl-1H-indol-5-yl)-5-ethyl-4-hydroxy-2-oxo-1,2-dihydropyridine-3-carboxylic acid], which MIC [1] is on record?
**A.** 3.5 to 12.5 µg/mL (≈ 8.81 to 31.4 µM)

**Q.** And the MIC [2]?
**A.** 12.5 to 150 µg/mL (≈ 31.4 to 377 µM)

**Q.** And the MIC [3]?
**A.** 3.5 to 12.5 µg/mL (≈ 8.81 to 31.4 µM)

**Q.** What about the MIC [4] of the same compound?
**A.** < 1 µg/mL

**Q.** What about the MIC [5] of the same compound?
**A.** < 1 µg/mL

**Q.** What about the MIC [6] of the same compound?
**A.** < 1 µg/mL

**Q.** What about the MIC [7] of the same compound?
**A.** 12.5 to 150 µg/mL (≈ 31.4 to 377 µM)

**Q.** And the MIC [8]?
**A.** 1 to 3.5 µg/mL (≈ 2.52 to 8.81 µM)

**Q.** What about the MIC [9] of the same compound?
**A.** 12.5 to 150 µg/mL (≈ 31.4 to 377 µM)

**Q.** What about the MIC [10] of the same compound?
**A.** < 1 µg/mL

**Q.** Which results are given for `CCc1c(-c2ccc3c(c2)cc(CN(C)C2CCCNC2)n3C)[nH]c(=O)c(C(=O)O)c1O` (stereo not shown) [Cpd 262, 5-ethyl-4-hydroxy-6-(1-methyl-2-((methyl(piperidin-3-yl)amino)methyl)-1H-indol-5-yl)-2-oxo-1,2-dihydropyridine-3-carboxylic acid]?
**A.** MIC [1]: 3.5 to 12.5 µg/mL (≈ 7.98 to 28.5 µM); MIC [2]: 12.5 to 150 µg/mL (≈ 28.5 to 342 µM); MIC [11]: 12.5 to 150 µg/mL (≈ 28.5 to 342 µM); MIC [3]: 12.5 to 150 µg/mL (≈ 28.5 to 342 µM); MIC [4]: 1 to 3.5 µg/mL (≈ 2.28 to 7.98 µM); MIC [7]: 12.5 to 150 µg/mL (≈ 28.5 to 342 µM); MIC [10]: 3.5 to 12.5 µg/mL (≈ 7.98 to 28.5 µM)

**Q.** Which MIC [1] does the source give for `CCc1c(-c2ccc3c(c2)cc(CN2CCCC(O)C2)n3C)[nH]c(=O)c(C(=O)O)c1O` (stereo not shown) [Cpd 255, 5-ethyl-4-hydroxy-6-(2-((3-hydroxypiperidin-1-yl)methyl)-1-methyl-1H-indol-5-yl)-2-oxo-1,2-dihydropyridine-3-carboxylic acid] here?
**A.** 12.5 to 150 µg/mL (≈ 29.4 to 353 µM)

**Q.** What about the MIC [2] of the same compound?
**A.** 12.5 to 150 µg/mL (≈ 29.4 to 353 µM)

**Q.** What about the MIC [11] of the same compound?
**A.** 12.5 to 150 µg/mL (≈ 29.4 to 353 µM)

**Q.** And the MIC [3]?
**A.** 3.5 to 12.5 µg/mL (≈ 8.23 to 29.4 µM)

**Q.** What about the MIC [4] of the same compound?
**A.** < 1 µg/mL

**Q.** What about the MIC [7] of the same compound?
**A.** 12.5 to 150 µg/mL (≈ 29.4 to 353 µM)

**Q.** What about the MIC [10] of the same compound?
**A.** 1 to 3.5 µg/mL (≈ 2.35 to 8.23 µM)

Source: patent US9409905B2, “Antibacterial compounds and methods for use” (PTC THERAPEUTICS, INC., priority 2011, dated 2016)
